Results reported in patent publication US8975415B2, “Chromane compounds” (CoMentis, Inc., priority 2012, dated 2015).

What was measured:
BACE1 [1] = molecular target: T1, BACE1 (Homo sapiens (Human), UniProt P56817); assay: Measurement of BACE1 inhibition by fluorescence resonance energy transfer (FRET), MCA substrate; settings: FRET; for IC50: read-out: Test Example 1 IC50, MCA-SEVNLDAEFK(DNP)-NH2 substrate, pH 4.4
Target sequence in this assay (P56817 75-416): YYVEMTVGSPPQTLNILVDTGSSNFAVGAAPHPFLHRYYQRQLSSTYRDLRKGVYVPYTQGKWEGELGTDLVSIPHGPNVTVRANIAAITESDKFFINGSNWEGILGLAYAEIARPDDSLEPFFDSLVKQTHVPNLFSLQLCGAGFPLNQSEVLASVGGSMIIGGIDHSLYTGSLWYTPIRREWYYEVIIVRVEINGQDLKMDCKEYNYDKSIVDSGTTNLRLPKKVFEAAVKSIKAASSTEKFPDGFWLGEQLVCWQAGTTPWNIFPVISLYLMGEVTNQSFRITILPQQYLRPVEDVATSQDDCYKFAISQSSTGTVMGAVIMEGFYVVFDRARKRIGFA

Aβ42 = assay: Brain Aβ reduction in rats (Aβ42 ELISA); type: in vivo, Sprague-Dawley rats; settings: rat, oral
Procedure: Effects on brain Aβ reduction in rats were determined with reference to the method described in the WO2012/054510. […] Concretely, the test was conducted with the method as below.
Test compounds were prepared in a vehicle of 35% HPβCD in H2O. The test compound was formulated the same day as oral dosing. Doses (see [Table. 1]) were based on the free base equivalent. Sonication was used where required to facilitate the formulation.
Male Sprague-Dawley rats (150-300 grams) were obtained from Charles River Japan (Atsugi, Japan) and were given approximately 4 days of acclimation. Food and water was made available ad libitum throughout the study. Animals were visually inspected for health before being included into the study group, and were randomly assigned to the treatment and control groups to achieve similar group mean body weights. The dosing solution (dose volume 5 mL/kg) was administered directly into the stomach using a rodent gavage needle. Control animals received oral administration of equivalent volume of the vehicle.
At a time post-dose (e.g., 3 hours; see [Table. 1]), animals were euthanized with isoflurane. […] Plasma was separated using centrifugation at 15,000 rpm (20,400×g) for 5 minutes at 4° C. and subsequently stored at −80° C. After blood sampling, CSF (cerebrospinal fluid) was carefully withdrawn from the cisterna magna using a 29 gauge needle after a quick dissection to expose the atlantooccipital membrane. The CSF samples were centrifuged at 15,000 rpm (20,400×g) for 5 minutes to confirm free of blood contamination and stored at −80° C. Immediately after decapitation, the hippocampus were isolated on ice, and quickly frozen in liquid nitrogen and stored at −80° C.
Fragments of the hippocampus were weighed while frozen. A 10-fold volume (w:v) of TBS (Tris-buffered saline) supplemented with a Complete Mini protease inhibitor tablet (catalog number: 11 836 153 001, Roche Diagnostics, In, USA) was added. The hippocampus were homogenized using sonication on ice in microcentrifuge tube. Resulting homogenates were centrifuged at 100,000×g for 1 hour in a refrigerated centrifuge at 4° C. Supernatants were collected as soluble fraction.
Each concentration of Aβ42 was divided by the mean concentration of Aβ42 of vehicle-treated group, and these ratios were converted to percentages.

BACE1 [2] = molecular target: T1, BACE1; assay: Measurement of Aβ production inhibition in cell (SK-N-BE(2) neuroblastoma cells, Aβ40 ELISA); settings: Test Example 3 IC50, Aβ40 production, SK-N-BE(2) cells, 6 hours
Target sequence in this assay (P56817 46-501): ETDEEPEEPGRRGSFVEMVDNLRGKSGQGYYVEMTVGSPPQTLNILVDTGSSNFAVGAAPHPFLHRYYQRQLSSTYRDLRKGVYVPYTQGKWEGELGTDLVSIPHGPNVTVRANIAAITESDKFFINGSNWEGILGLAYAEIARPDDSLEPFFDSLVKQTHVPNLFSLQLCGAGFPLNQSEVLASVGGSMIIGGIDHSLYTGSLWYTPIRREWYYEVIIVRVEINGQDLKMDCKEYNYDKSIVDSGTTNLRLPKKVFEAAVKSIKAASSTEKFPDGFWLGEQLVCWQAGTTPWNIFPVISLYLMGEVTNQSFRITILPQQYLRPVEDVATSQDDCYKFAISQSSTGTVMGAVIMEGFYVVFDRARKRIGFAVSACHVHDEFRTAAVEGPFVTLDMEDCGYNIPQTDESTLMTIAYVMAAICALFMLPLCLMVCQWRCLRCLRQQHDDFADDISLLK
Procedure: The potency of compounds against BACE1 activity was determined in a cellular assay of Aβ production. […] Test compounds were dissolved in dimethyl sulfoxide and diluted with dimethyl sulfoxide and put into RPMI1640/5% FBS/penicillin-streptomycin media (final dimethyl sulfoxide concentration is 0.5%). […] CellTiter-Glo Substrate was dissolved into CellTiter-Glo Buffer and added to the plates in 95 μL/well. After shaking the plates for 2 minutes, the whole sample was transferred into a white 96-well plate and luminescence was measured for ATP quantification as the cell viability. Aβ concentration measured by ELISA was normalized by the viability of the corresponding cells.

BACE1 [3] = molecular target: T1, BACE1; assay: Measurement of BACE1 inhibition by time resolved fluorescence resonance energy transfer (TR-FRET); type: biochemical; settings: Eu-CEVNLDAEFK-QSY 7 substrate, read-out: Test Example 2 IC50
Target sequence in this assay (P56817 75-416): as the sequence (P56817 75-416) above
Procedure: If the sample contains BACE1 activity, the Eu chelate and the quencher will be separated as the substrate is cleaved. The Eu-signal increases and it can be measured by time-resolved fluorometry, EnVision™, 30 minutes after the substrate (final concentration 300 nM) was added.

hERG potassium channel = hERG potassium channel (Homo sapiens (Human), UniProt Q12809); assay: hERG inhibition, automated planar patch-clamp in hERG-expressing CHO cells; settings: read-out: Test Example 5 hERG IC50; whole-cell patch clamp, room temperature
hERG potassium channel, sequence (Q12809 whole entry): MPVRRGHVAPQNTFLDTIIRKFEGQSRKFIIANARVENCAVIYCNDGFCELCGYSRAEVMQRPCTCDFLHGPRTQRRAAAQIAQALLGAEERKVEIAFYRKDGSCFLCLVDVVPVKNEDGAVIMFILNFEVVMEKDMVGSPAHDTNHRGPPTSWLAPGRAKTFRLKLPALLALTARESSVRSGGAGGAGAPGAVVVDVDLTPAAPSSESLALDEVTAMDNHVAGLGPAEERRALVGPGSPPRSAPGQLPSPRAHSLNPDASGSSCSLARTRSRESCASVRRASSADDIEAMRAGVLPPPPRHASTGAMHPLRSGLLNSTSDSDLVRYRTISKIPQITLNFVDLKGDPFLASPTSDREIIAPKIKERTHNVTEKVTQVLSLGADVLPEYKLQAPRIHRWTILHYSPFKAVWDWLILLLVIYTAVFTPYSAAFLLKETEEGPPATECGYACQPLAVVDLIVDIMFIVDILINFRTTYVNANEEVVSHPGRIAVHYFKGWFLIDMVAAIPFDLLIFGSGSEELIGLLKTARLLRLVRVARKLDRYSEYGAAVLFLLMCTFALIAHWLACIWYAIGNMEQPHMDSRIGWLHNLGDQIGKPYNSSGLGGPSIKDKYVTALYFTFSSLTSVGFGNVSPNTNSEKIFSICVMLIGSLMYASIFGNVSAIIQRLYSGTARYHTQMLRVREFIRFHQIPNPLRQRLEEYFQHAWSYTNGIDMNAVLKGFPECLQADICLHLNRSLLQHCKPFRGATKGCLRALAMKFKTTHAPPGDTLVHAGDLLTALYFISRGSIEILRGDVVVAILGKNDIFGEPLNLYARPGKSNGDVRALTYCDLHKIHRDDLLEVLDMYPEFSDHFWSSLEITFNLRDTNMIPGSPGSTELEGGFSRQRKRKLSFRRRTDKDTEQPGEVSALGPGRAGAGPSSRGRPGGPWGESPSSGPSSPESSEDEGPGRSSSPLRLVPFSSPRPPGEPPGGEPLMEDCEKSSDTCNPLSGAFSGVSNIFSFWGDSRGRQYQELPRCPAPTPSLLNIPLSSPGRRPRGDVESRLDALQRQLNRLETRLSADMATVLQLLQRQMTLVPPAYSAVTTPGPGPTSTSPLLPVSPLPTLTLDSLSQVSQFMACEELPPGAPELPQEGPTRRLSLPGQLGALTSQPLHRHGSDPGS

| SMILES | IC50 (BACE1 [1]) [nM] | IC50 (BACE1 [2]) [nM] | IC50 (BACE1 [3]) [nM] | also measured |
| --- | --- | --- | --- | --- |
| CC1(C)Oc2ccc(NC(=O)c3ccc(Cl)cn3)cc2[C@@]2(COC(N)=N2)C12CC2 [Example 221] | 81.8 | 0.16 |  | Ki (BACE1 [1]; read-out: Test Example 1 BACE1 MCA Ki, MCA substrate): 37.8 nM; Test Example 4 Aβ42 reduction (%) (Aβ42; 1 mg/kg, 3 hours): 24%; Test Example 4 Aβ42 reduction (%) (Aβ42; 3 mg/kg, 3 hours): 42% |
| Cn1cc2cc(-c3ccc4c(c3)C3(COC(N)=N3)C3(CC3)CO4)ccc2n1 (centres unmarked) [RP 213] |  |  | 39600 | IC50 (hERG potassium channel): > 10000 nM |
| CC1(C)Oc2ccc(-c3cc(F)ccn3)cc2C2(COC(N)=N2)C12COC2 (centres unmarked) [RP 149] |  | 1100 | 1590 |  |
| CC1(C)Oc2ccc(NC(=O)c3ccc(Cl)cn3)cc2[C@@]2(COC(N)=N2)C12COC2 [Example 218, N-[(4S)-2-amino-2′,2′-dimethyldispiro[1,3-oxazole-4,4′-chromene-3′,3″-oxetan]-6′-yl]-5-chloropyridine-2-carboxamide] |  |  |  | Test Example 4 Aβ42 reduction (%) (Aβ42; 3 mg/kg, 2.5 hours): 24%; Test Example 4 Aβ42 reduction (%) (Aβ42; 10 mg/kg, 2.5 hours): 31% |
| CC1(C)Oc2ccc(-c3cccc4cccnc34)cc2C2(COC(N)=N2)C12COC2 (centres unmarked) [RP 179] | 3240 | 1400 | 2060 |  |
| COC/C=C/c1ccc2c(c1)C1(COC(N)=N1)C1(COC1)C(C)(C)O2 (centres unmarked) [RP 181] | 2590 | 820 | 2130 |  |
| CC1(C)Oc2ccc(-c3cncc(Cl)c3)cc2C2(COC(N)=N2)C12COC2 (centres unmarked) [RP 173] | 401 | 73 | 239 |  |
| NC1=NC2(CO1)c1cc(-c3cncc4ccccc34)ccc1OC1(CCC1)C21COC1 (centres unmarked) [RP 210] |  |  | 4950 | IC50 (hERG potassium channel): 3700 nM |
| NC1=NC2(CO1)c1cc(-c3cc(Cl)cnc3F)ccc1OCC21CC1 (centres unmarked) [RP 104] |  |  | 1130 | IC50 (hERG potassium channel): 3250 nM |
| COc1ccnc(-c2ccc3c(c2)C2(COC(N)=N2)C2(COC2)C(C)(C)O3)c1 (centres unmarked) [RP 65, 6′-(4-methoxypyridin-2-yl)-2′,2′-dimethyldispiro[1,3-oxazole-4,4′-chromene-3′,3″-oxetan]-2-amine] |  | 49 | 388 |  |
| COc1cnc(C(=O)Nc2ccc3c(c2)[C@@]2(COC(N)=N2)C2(COC2)C(C)(C)O3)cn1 [Example 220] |  |  |  | IC50 (hERG potassium channel): > 10000 nM; Test Example 4 Aβ42 reduction (%) (Aβ42; 3 mg/kg, 1.5 hours): 21%; Test Example 4 Aβ42 reduction (%) (Aβ42; 10 mg/kg, 1.5 hours): 27% |
| Cc1cn2cc(-c3ccc4c(c3)C3(COC(N)=N3)C3(COC3)C3(CCC3)O4)ccc2n1 (centres unmarked) [RP 67] |  |  | 96500 | IC50 (hERG potassium channel): > 10000 nM |
| CC#Cc1cc(-c2ccc3c(c2)C2(COC(N)=N2)C2(COC2)CO3)ccn1 (centres unmarked) [RP 20] |  | 580 | 2710 |  |
| CC1(C)Oc2ccc(NC(=O)c3cnc(C(F)F)cn3)cc2[C@@]2(COC(N)=N2)C12CC2 [Example 224, N-[(4′R)-2″-amino-2′,2′-dimethyldispiro[cyclopropane-1,3′-chromene-4′,4″-[1,3]oxazol]-6′-yl]-5-(difluoromethyl)pyrazine-2-carboxamide] |  |  |  | IC50 (hERG potassium channel): 15100 nM; Test Example 4 Aβ42 reduction (%) (Aβ42; 1 mg/kg, 3 hours): 21%; Test Example 4 Aβ42 reduction (%) (Aβ42; 3 mg/kg, 3 hours): 35% |
| Cc1cn2ccc(-c3ccc4c(c3)C3(COC(N)=N3)C3(COC3)C3(CCC3)O4)cc2n1 (centres unmarked) [RP 66] |  |  | 135000 | IC50 (hERG potassium channel): > 10000 nM |
| CC#Cc1cc(-c2ccc3c(c2)C2(COC(N)=N2)C2(COC2)CO3)ncn1 (centres unmarked) [RP 21] |  | 410 | 1350 |  |
| CC1(C)Oc2ccc(NC(=O)c3ccc(Cl)cn3)cc2[C@@]2(COC(N)=N2)C12COC2 (hydrate or solvate) [Example 218, N-[(4S)-2-amino-2′,2′-dimethyldispiro[1,3-oxazole-4,4′-chromene-3′,3″-oxetan]-6′-yl]-5-chloropyridine-2-carboxamide] |  |  |  | melting point: 165 °C |
| CC1(C)Oc2ccc(-c3cncc(Cl)n3)cc2C2(COC(N)=N2)C12COC2 (centres unmarked) [RP 150] |  | 450 | 759 |  |
| COc1cnc(C(=O)Nc2ccc3c(c2)[C@@]2(COC(N)=N2)C2(CC2)C(C)(C)O3)cn1 [Example 223, N-[(4′R)-2″-amino-2′,2′-dimethyldispiro[cyclopropane-1,3′-chromene-4′,4″-[1,3]oxazol]-6′-yl]-5-methoxypyrazine-2-carboxamide] |  |  |  | Test Example 4 Aβ42 reduction (%) (Aβ42; 1 mg/kg, 3 hours): 19%; Test Example 4 Aβ42 reduction (%) (Aβ42; 3 mg/kg, 3 hours): 34% |

| SMILES | IC50 (BACE1 [1]) [nM] | IC50 (BACE1 [2]) [nM] | IC50 (BACE1 [3]) [nM] | also measured |
| --- | --- | --- | --- | --- |
| COc1ncc(Cl)cc1-c1ccc2c(c1)C1(COC(N)=N1)C1(COC1)C(C)(C)O2 (centres unmarked) [RP 155] |  | 630 | 786 |  |
| CC1(C)Oc2ccc(-c3cnc4[nH]ccc4c3)cc2C2(COC(N)=N2)C12COC2 (centres unmarked) [RP 168] |  | 310 | 760 |  |
| CC1(C)Oc2ccc(-c3cc(Cl)cnc3F)cc2C2(COC(N)=N2)C12COC2 (centres unmarked) [RP 154] |  | 32 | 313 | IC50 (hERG potassium channel): > 1000 nM |
| CC1(C)Oc2ccc(NC(=O)c3cnc(C(F)F)cn3)cc2[C@@]2(COC(N)=N2)C12CC2.Cl |  |  |  | melting point: 254 °C |
| CC1(C)Oc2ccc(-c3cccc4[nH]ncc34)cc2C2(COC(N)=N2)C12COC2 (centres unmarked) [RP 176] |  | 850 | 994 |  |
| CC1(C)Oc2ccc(-c3ccc(OC(F)F)cc3)cc2C2(COC(N)=N2)C12COC2 (centres unmarked) [RP 187] | 3160 |  | 1920 |  |
| CCC1CC=C(c2ccc3c(c2)C2(COC(N)=N2)C2(COC2)C(C)(C)O3)CC1 (centres unmarked) [RP 172] | 2240 |  | 2160 |  |
| CC1(C)Oc2ccc(-c3c(F)ccc(F)c3F)cc2C2(COC(N)=N2)C12COC2 (centres unmarked) [RP 185] | 2050 | 760 | 1270 |  |
| CNC(=O)c1cc(F)cc(-c2ccc3c(c2)C2(COC(N)=N2)C2(COC2)C(C)(C)O3)c1 (centres unmarked) [RP 171] | 2240 | 3100 | 3040 |  |
| CC1(C)Oc2ccc(-c3cc(C#N)ccc3F)cc2C2(COC(N)=N2)C12COC2 (centres unmarked) [RP 170] | 1000 | 400 | 588 |  |
| COc1cnc(C(=O)Nc2ccc3c(c2)[C@@]2(COC(N)=N2)C2(CC2)C(C)(C)O3)cn1 [Example 230, N-[(4′R)-2″-amino-2′,2′-dimethyldispiro[cyclopropane-1,3′-chromene-4′,4″-[1,3]oxazol]-6′-yl]-5-methoxypyrazine-2-carboxamide] |  |  |  | melting point: 191 °C |
| CC1(C)Oc2ccc(-c3cccc(OC(F)(F)F)c3)cc2C2(COC(N)=N2)C12COC2 (centres unmarked) [RP 183] | 1080 |  | 880 |  |
| CC1(C)Oc2ccc(-c3ccc4c(c3)OCO4)cc2C2(COC(N)=N2)C12COC2 (centres unmarked) [RP 182] |  | 2500 | 1450 |  |
| CC#Cc1cncc(-c2ccc3c(c2)C2(COC(N)=N2)C2(COC2)CO3)n1 (centres unmarked) [RP 22] |  | 2900 | 2600 |  |
| CC1(C)Oc2ccc(-c3cccc4cnccc34)cc2C2(COC(N)=N2)C12COC2 (centres unmarked) [RP 180] | 2030 | 490 | 1770 |  |
| CC1(C)Oc2ccc(-c3ccc4[nH]ccc4c3)cc2C2(COC(N)=N2)C12COC2 (centres unmarked) [RP 174, 6′-(1H-indol-5-yl)-2′,2′-dimethyldispiro[1,3-oxazole-4,4′-chromene-3′,3″-oxetan]-2-amine] | 3350 | 3400 | 2180 |  |
| CC1(C)Oc2ccc(-c3ccc4nonc4c3)cc2C2(COC(N)=N2)C12COC2 (centres unmarked) [RP 178] | 1150 | 810 | 747 |  |
| CC1(C)Oc2ccc(-c3ccc4[nH]ncc4c3)cc2C2(COC(N)=N2)C12COC2 (centres unmarked) [RP 177] |  | 1500 | 2120 |  |
